Source: patent EP4745117A1, “NOVEL INDENONE DERIVATIVE AND USE THEREOF” (Amyloid Solution Inc., priority 2023, dated 2025)
Where two headings read alike, the source gives them in different places.

Tests used:
Aβ1-42 = target: T1, Aβ1-42 (Homo sapiens, UniProt P05067); experiment: Amyloid-beta disaggregation test by Thioflavin-T analysis; format: biochemical
T1 construct: dissolving Aβ1-42 or Tau-RD3 (Tau repeat domain 3) monomers in DMSO
Description: (§1) Each compound was dissolved in DMSO to a concentration of 10 mM. Then, the compounds were diluted with 6 % DMSO (in DW) for use.
(§2) Amyloid-beta and tau solutions were prepared by dissolving Aβ1-42 or Tau-RD3 (Tau repeat domain 3) monomers in DMSO to a concentration of 10 mM. Then, the solutions were diluted to 100 µM with DW and stored on ice.
(§3) Meanwhile, Thioflavin-T was dissolved in 50 mM glycine buffer (pH 8.5) to a concentration of 5 mM. Then, the solution was diluted to 5 µM with 50 mM glycine buffer (pH 8.5) and stored in the dark, protected from light.
(§4) The amyloid-beta and tau solutions prepared in Example 1.1 were each placed in 1.5 mL microcentrifuge tubes to a concentration of 50 µM or 35 µM, respectively, and then reacted at 37 °C for 24 hours.
(§5) To each 1.5 mL microcentrifuge tube in which the amyloid-beta and tau aggregation was complete, the compounds were added at concentrations ranging from 500 µM down to 0 µM by serial dilution, and then further reacted at 37 °C for 48 hours.
(§6) 25 µL of each completed reaction solution was added to each well of a 96-well fluorescence analysis plate, and 75 µL of the Thioflavin-T solution was added to each well. After reacting for 5 minutes at room temperature in the dark, the fluorescence value was measured at 450 nm (excitation) and 485 nm (emission) using a multi-mode microplate reader.
(§7) The fluorescence value of the group (control group) treated with only amyloid-beta or tau and aggregated for 72 hours was designated as 100 %. The fluorescence values measured after treating the amyloid-beta and tau aggregates (formed by reacting for 24 hours) with each compound by concentration and reacting for an additional 48 hours were converted to relative values.

[1] = target: Tau-RD3 (Tau repeat domain 3) (Homo sapiens, UniProt P10636); experiment: Tau disaggregation test by Thioflavin-T analysis; format: biochemical
Sequence of Tau-RD3 (Tau repeat domain 3) (P10636 623-653 limits assumed): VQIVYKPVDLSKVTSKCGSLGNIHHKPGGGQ
Description: as §1, §2, §3, §4, §5, §6, §7

[2] = Aβ1-42 50 µM aggregated 24 hours, then compound 0 - 500 µM for 48 hours at 37 °C; concentration disaggregating 50 % of aggregates vs control; read-out: EC50 (µM) Aβ
[3] = Tau-RD3 35 µM aggregated 24 hours, then compound 0 - 500 µM for 48 hours at 37 °C; concentration disaggregating 50 % of aggregates vs control; read-out: EC50 (µM) Tau
[4] = statement in words summarising the Thioflavin-T results

T1 sequence (P05067 672-713 limits assumed): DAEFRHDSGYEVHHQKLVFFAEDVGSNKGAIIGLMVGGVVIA

SMILES | EC50 (Aβ1-42; [2]) [µM] | EC50 [1, 3] [µM] | EC50 (Aβ1-42; read-out: EC50 (µM) Aβ; Aβ1-42 50 µM aggregated 24 hours, then compound 0 - 500 µM for 48 hours at 37 °C; concentration disaggregating 50 % of aggregates vs control) [µM] | EC50 ([1]; read-out: EC50 (µM) Tau; Tau-RD3 35 µM aggregated 24 hours, then compound 0 - 500 µM for 48 hours at 37 °C; concentration disaggregating 50 % of aggregates vs control) [µM] | disaggregation effect for amyloid-beta protein aggregates (Aβ1-42; [4]) | disaggregation effect for tau protein aggregates [1, 4]
O=C1C(Br)=C(c2ccccc2)c2ccccc21 [Compound 6-2, 2-bromo-3-phenyl-1H-inden-1-one] | 20 to 100 | < 20 |  |  |  | 
CN1CCN(c2ccc3c(c2)C(=O)C(c2cccc(N4CCOCC4)c2)=C3c2ccccc2)CC1 [Compound 73, 6-(4-methylpiperazin-1-yl)-2-(3-morpholinophenyl)-3-phenyl-1H-inden-1-one] | 100 to 250 | 100 to 250 |  |  |  | 
Cc1cc(N2CCN(C)CC2)cc2c1C(c1ccccc1)=C(c1ccccc1)C2=O [Compound 71, 4-methyl-6-(4-methylpiperazin-1-yl)-2,3-diphenyl-1H-inden-1-one] | 20 to 100 | 100 to 250 |  |  |  | 
Cc1ccccc1C1=C(c2ccccc2)C(=O)c2ccccc21 [Compound 5, 2-phenyl-3-(o-tolyl)-1H-inden-1-one] | 20 to 100 | > 250 |  |  |  | 
Cc1ncsc1C1=C(c2scnc2C)c2ccc(OCCCc3ccccc3)cc2C1=O [Compound 77, 2,3-bis(4-methylthiazol-5-yl)-6-(3-phenylpropoxy)-1H-inden-1-one] | < 20 | < 20 |  |  |  | 
O=C1C(c2ccc(N3CCOCC3)cc2)=C(c2ccccc2)c2ccccc21 [Compound 17, 2-(4-morpholinophenyl)-3-phenyl-1H-inden-1-one] | < 20 | > 250 |  |  |  | 
O=C1C(c2ccccc2)=C(c2ccccc2)c2ccccc21 [Compound 1, 2,3-diphenylinden-1-one] | < 20 | > 250 |  |  |  | 
O=C1C(c2ccccc2)=C(c2ccc(CN3CCOCC3)cc2)c2ccccc21 [Compound 16, 3-(4-(morpholinomethyl)phenyl)-2-phenyl-1H-inden-1-one] | 20 to 100 | > 250 |  |  |  | 
CCOC(=O)c1ccccc1C1=C(c2ccccc2C)c2ccccc2C1=O [Compound 99-7, ethyl 2-(1-oxo-3-(o-tolyl)-1H-inden-2-yl)benzoate] | 100 to 250 | > 250 |  |  |  | 
CN(C)c1ccc2c(c1)C(=O)C(c1ccccc1)=C2c1ccccc1 [Compound 69, 6-(dimethylamino)-2,3-diphenyl-1H-inden-1-one] | < 20 | > 250 |  |  |  | 
CC(C)Oc1ccc2c(c1)C(=O)C(c1ccccc1)=C2c1ccccc1 [Compound 4, isopropoxy-2,3-diphenyl-1H-inden-1-one] |  |  | 20 to 100 | > 250 |  | 
CN1CCN(c2ccc3c(c2)C(=O)C(c2cccc(N4CCOCC4)c2)=C3c2cccc(N3CCOCC3)c2)CC1 [Compound 80, 6-(4-methylpiperazin-1-yl)-2,3-bis(3-morpholinophenyl)-1H-inden-1-one] | 20 to 100 | 100 to 250 |  |  |  | 
Cc1ncsc1C1=C(c2ccn(C)n2)C(=O)c2cc(OCCCc3ccccc3)ccc21 [Compound 26, 2-(1-methyl-1H-pyrazol-3-yl)-3-(4-methylthiazol-5-yl)-6-(3-phenylpropoxy)-1H-inden-1-one] | < 20 | > 250 |  |  |  | 
O=C1C(c2cccc(N3CCOCC3)c2)=C(c2ccccc2)c2ccccc21 [Compound 18, 2-(3-morpholinophenyl)-3-phenyl-1H-inden-1-one] | < 20 | > 250 |  |  |  | 

Continued, in another order:

EC50 (Aβ1-42; [2]) [µM] | EC50 [1, 3] [µM] | EC50 (Aβ1-42; read-out: EC50 (µM) Aβ; Aβ1-42 50 µM aggregated 24 hours, then compound 0 - 500 µM for 48 hours at 37 °C; concentration disaggregating 50 % of aggregates vs control) [µM] | EC50 ([1]; read-out: EC50 (µM) Tau; Tau-RD3 35 µM aggregated 24 hours, then compound 0 - 500 µM for 48 hours at 37 °C; concentration disaggregating 50 % of aggregates vs control) [µM] | SMILES | disaggregation effect for amyloid-beta protein aggregates (Aβ1-42; [4]) | disaggregation effect for tau protein aggregates [1, 4]
20 to 100 | < 20 |  |  | Cc1ncsc1C1=C(c2cccnc2)C(=O)c2cc(NC(=O)CCc3ccccc3)ccc21 [Compound 60, N-(3-(4-methylthiazol-5-yl)-1-oxo-2-(pyridin-3-yl)-1H-inden-6-yl)-3-phenylpropanamide] |  | 
> 250 | 100 to 250 |  |  | Cc1ncsc1C1=C(C#N)C(=O)c2cc(OCCCc3ccccc3)ccc21 [Compound 34, 3-(4-methylthiazol-5-yl)-1-oxo-6-(3-phenylpropoxy)-1H-indene-2-carbonitrile] |  | 
> 250 | 100 to 250 |  |  | Cc1ncsc1C1=C(c2cccnc2)C(=O)c2ccccc21 [Compound 19, 3-(4-methylthiazol-5-yl)-2-(pyridin-3-yl)-1H-inden-1-one] |  | 
< 20 | < 20 |  |  | Cc1ncsc1C1=C(c2cnn(C)n2)C(=O)c2cc(OCCCc3ccccc3)ccc21 [Compound 33, 2-(2-methyl-2H-1,2,3-triazol-4-yl)-3-(4-methylthiazol-5-yl)-6-(3-phenylpropoxy)-1H-inden-1-one] |  | 
> 250 | > 250 |  |  | Cn1cc(C2=C(c3cccnc3)C(=O)c3cc(OCCCc4ccccc4)ccc32)cn1 [Compound 42, 3-(1-methyl-1H-pyrazol-4-yl)-6-(3-phenylpropoxy)-2-(pyridin-3-yl)-1H-inden-1-one] |  | 
< 20 | > 250 |  |  | Cc1ncsc1C1=C(c2cnccn2)C(=O)c2cc(OCCCc3ccccc3)ccc21 [Compound 41, 3-(4-methylthiazol-5-yl)-6-(3-phenylpropoxy)-2-(pyrazin-2-yl)-1H-inden-1-one] |  | 
100 to 250 | 20 to 100 |  |  | COc1ccccc1C1=C(c2cccnc2)C(=O)c2cc(O)ccc21 [Compound 44-8, 6-hydroxy-3-(2-methoxyphenyl)-2-(pyridin-3-yl)-1H-inden-1-one] |  | 
100 to 250 | > 250 |  |  | COc1cccc(OC)c1C1=C(c2cccnc2)C(=O)c2cc(O)ccc21 [Compound 45-8, 3-(2,6-dimethoxyphenyl)-6-hydroxy-2-(pyridin-3-yl)-1H-inden-1-one] |  | 
< 20 | < 20 |  |  | Cc1ncsc1C1=C(c2cccnc2)C(=O)c2cc(SCCCc3ccccc3)ccc21 [Compound 57, 3-(4-methylthiazol-5-yl)-6-((3-phenylpropyl)thio)-2-(pyridin-3-yl)-1H-inden-1-one] | remarkably excellent disaggregation effect | remarkably excellent disaggregation effect
< 20 | > 250 |  |  | Cc1ncsc1C1=C(c2ccccn2)C(=O)c2cc(OCCCc3ccccc3)ccc21 [Compound 40, 3-(4-methylthiazol-5-yl)-6-(3-phenylpropoxy)-2-(pyridin-2-yl)-1H-inden-1-one] |  | 
< 20 | < 20 |  |  | Cc1ncsc1C1=C(c2c[nH]nn2)C(=O)c2cc(OCCCc3ccccc3)ccc21 [Compound 31, 3-(4-methylthiazol-5-yl)-6-(3-phenylpropoxy)-2-(1H-1,2,3-triazol-4-yl)-1H-inden-1-one] |  | 
> 250 | 20 to 100 |  |  | Cc1scnc1C1=C(c2cccnc2)C(=O)c2cc(O)ccc21 [Compound 23-10, 6-hydroxy-3-(5-methylthiazol-4-yl)-2-(pyridin-3-yl)-1H-inden-1-one] |  | 
> 250 | > 250 |  |  | Cc1ncsc1C1=C(c2cccnc2)C(=O)c2cc(N(C)C)ccc21 [Compound 62, 6-(dimethylamino)-3-(4-methylthiazol-5-yl)-2-(pyridin-3-yl)-1H-inden-1-one] |  | 
> 250 | > 250 |  |  | CNc1ccc2c(c1)C(=O)C(c1cccnc1)=C2c1scnc1C [Compound 50, 6-(methylamino)-3-(4-methylthiazol-5-yl)-2-(pyridin-3-yl)-1H-inden-1-one] |  | 
< 20 | > 250 |  |  | O=C1C(c2cccnc2)=C(c2ccccc2)c2ccccc21 [Compound 7, 3-phenyl-2-(pyridin-3-yl)-1H-inden-1-one] |  | 
< 20 | < 20 |  |  | Cc1ncsc1C1=C(c2cnn(C)c2)C(=O)c2cc(OCCCc3ccccc3)ccc21 [Compound 28, 2-(1-methyl-1H-pyrazol-4-yl)-3-(4-methylthiazol-5-yl)-6-(3-phenylpropoxy)-1H-inden-1-one] | remarkably excellent disaggregation effect | remarkably excellent disaggregation effect
< 20 | > 250 |  |  | Cc1ncsc1C1=C(c2cccnc2)C(=O)c2cc(OCCCc3ccccc3)cc(O)c21 [Compound 48, 4-hydroxy-3-(4-methylthiazol-5-yl)-6-(3-phenylpropoxy)-2-(pyridin-3-yl)-1H-inden-1-one] |  | 
< 20 | > 250 |  |  | Cc1ncsc1C1=C(c2cccnc2)C(=O)c2cc(NC3CCCN(c4ccccc4)C3)ccc21 (stereo not shown) [Compound 58, 3-(4-methylthiazol-5-yl)-6-((1-phenylpiperidin-3-yl)amino)-2-(pyridin-3-yl)-1H-inden-1-one] |  | 
> 250 | > 250 |  |  | Cc1ncsc1C1=C(c2ccccn2)C(=O)c2cc(O)ccc21 [Compound 40-4, 6-hydroxy-3-(4-methylthiazol-5-yl)-2-(pyridin-2-yl)-1H-inden-1-one] |  | 
